Data published in article PMC7021098 (Journal of Antimicrobial Chemotherapy, 2019).
Read-outs that look alike come from different tables or passages of the source. Marks after values point to notes of the source that are not given here.

Experiments:
[1] = cited from earlier work; for reported CSF distribution: other NNRTIs
[2] = cited from earlier work
[3] = system: WT HIV-1; details: cited from earlier work; for in vitro EC50 for WT HIV-1: ref 10 (cabotegravir), 37 (rilpivirine)
[4] = system: breast cancer resistance protein (BCRP); details: in vitro; ref 42 (cabotegravir), 43 (rilpivirine); cited from earlier work
[5] = Phase 1, monthly IM LA, cited from earlier work
[6] = system: plasma proteins; details: cited from earlier work
[7] = system: P-glycoprotein; details: in vitro; ref 42 (cabotegravir), 43 (rilpivirine); cited from earlier work
[8] = Cabotegravir and rilpivirine concentrations in plasma and CSF by HPLC-MS/MS; format: in vivo, HIV-infected adults; details: for Total plasma drug / Total CSF drug / Total CSF/total plasma (%) / Kp / Unbound plasma drug: median (minimum–maximum); for Total CSF/total plasma (%) / Kp: paired samples; for Kp: human, CSF/plasma, intramuscular, Total CSF/total plasma (%)
[9] = Q4W, n = 3, 7 ± 3 days after injection
[10] = Q8W, n = 15, 7 ± 3 days after injection

Compound | reported CSF distribution [1] [%] | protein binding in CSF [2] | in vitro EC50 for WT HIV-1 [3] [ng/mL] | substrate for breast cancer resistance protein (BCRP) [4] | time to maximum plasma concentrations [5] | bound to plasma proteins [6] [%] | substrate for P-glycoprotein [7] | median CSF level, fold above in vitro EC50 for WT HIV-1 ([8]; Q4W group) [fold] | Total CSF/total plasma (%) ([8]; Q4W, n = 3) | median CSF level, fold above in vitro EC50 for WT HIV-1 ([8]; Q8W group) [fold] | Total CSF/total plasma (%) ([8]; Q8W, n = 13) | Kp ([8]; Q4W, n = 3) | Kp ([8]; Q8W, n = 13) | also measured
Cc1cc(C#N)cc(C)c1Oc1nc(Nc2ccc(C#N)cc2)nc(N)c1Br [etravirine] | 1 | predominantly protein-bound |  |  |  |  |  |  |  |  |  |  |  | 
O=C(NCc1c(F)cc(F)cc1F)c1cn2c(c(O)c1=O)C(=O)N1[C@H]3CC[C@H](C3)O[C@@H]1C2 [bictegravir] |  | predominantly protein-bound |  |  |  |  |  |  |  |  |  |  |  | 
Cc1cc(/C=C/C#N)cc(C)c1Nc1ccnc(Nc2ccc(C#N)cc2)n1 [rilpivirine] |  |  | 0.27 | not a substrate | approximately 1 week | 99.7 | not a substrate | 6 | 1.32% | 7 | 1.07% | 0.0107 | 0.0132 | CSF-to-plasma ratio ([1]; 25 mg administered orally for 60 days): 1.4%; maximum plasma concentrations (geometric mean) ([5]; after the second dose of rilpivirine): 126 to 168 ng/mL; Total plasma drug [8, 9]: 134 (83.0–187) ng/mL; Total CSF drug ([8]; Q4W, n = 3): 1.67 (1.40–2.47) ng/mL; Total CSF/total plasma (%) ([8]; Q4W, n = 3, listed as Rilpivirine): 1.32 (1.25–1.69) %; Total CSF/total plasma (%) ([8]; Q8W, n = 13, listed as Rilpivirine): 1.07 (NQ to 1.52)^c^, d %; Total plasma drug [8, 10]: 192 (91.7–378) ng/mL; plasma concentration in the participant with non-quantifiable CSF level ([8]; single participant): 117 ng/mL; CSF concentration in the one participant with non-quantifiable level ([8]; single participant, Q8W, not quantifiable): under 1 ng/mL
C[C@H]1CO[C@@H]2Cn3cc(C(=O)NCc4ccc(F)cc4F)c(=O)c(O)c3C(=O)N12 [cabotegravir] |  |  | 0.10 | substrate | approximately 1 week | > 99.8 | substrate | 127 | 0.344 (0.312–0.421) % | 106 | 0.304 (0.218–0.449)^c % | 0.003 | 0.0034 | EC50 ([3]; read-out: EC50 for WT HIV-1 clade B): 250 pM; maximum plasma concentrations (geometric mean) ([5]; after the fourth dose of cabotegravir): 2200 to 4400 ng/mL; Total plasma drug ([8]; Q4W (cabotegravir LA 400 mg + rilpivirine LA 600 mg IM every 4 weeks), n = 3, 7 ± 3 days after injection): 3.02 (2.37–5.10) μg/mL; Total CSF drug [8, 9]: 0.0127 (0.0082–0.0159) μg/mL; Unbound plasma drug [8, 9]: 0.0019 (0.0014–0.0698) μg/mL; Total plasma drug ([8]; Q8W (cabotegravir LA 600 mg + rilpivirine LA 900 mg IM every 8 weeks), n = 15, 7 ± 3 days after injection): 3.92 (1.30–6.41) μg/mL; Total CSF drug ([8]; Q8W, n = 13, 7 ± 3 days after injection): 0.0106 (0.0053–0.0245)^c μg/mL; Unbound plasma drug [8, 10]: 0.0047 (0.0007–0.0220) μg/mL
O=C1Nc2ccc(Cl)cc2[C@@](C#CC2CC2)(C(F)(F)F)O1 [efavirenz] | 0.5 |  |  |  |  |  |  |  |  |  |  |  |  | 
C[C@@H]1CCO[C@H]2Cn3cc(C(=O)NCc4ccc(F)cc4F)c(=O)c(O)c3C(=O)N12 [dolutegravir] |  |  |  |  |  |  |  |  |  |  |  |  |  | CSF inhibitory quotient (ratio of drug concentration to EC50), median [1]: 66–90 fold; CSF-to-plasma ratio ([1]; oral administration at 50 mg once daily): 0.41%
